From patent US8968883B2, “Chrysene derivative materials” (E I du Pont de Nemours and Company, priority 2009, dated 2015) come the findings set out here.

Converted amounts (≈) assume the structure as drawn.

A short description of this data set: Solubility in processing solvents (Table 1, Compound Properties). Format: physicochemical. The settings on record: for Solubility anisole: solvent anisole; for Solubility toluene: solvent toluene. How it is done:
It is also noted that solubility of the chrysene derivative materials in processing solvents can be adjusted to satisfy solution processing requirements. In some embodiments the solubility of chrysene derivatives in toluene and anisole is higher than 20 mg per ml of solvent. High solubility allows for better solution processing of electroactive devices.

Consider `c1ccc(-c2ccc(N(c3ccc(-c4cccc(-c5ccccc5)c4)cc3)c3ccc4ccc5c6ccccc6ccc5c4c3)cc2)cc1` [Compound C1], for which the Solubility anisole stood at 23.9 mg/mL (≈ 38.3 mM) and the Solubility toluene was found to be 24.6 mg/mL (≈ 39.4 mM).
The like results for `Cc1ccc(N(c2ccc(-c3ccc(-c4ccccc4)cc3)cc2)c2ccc3ccc4c5ccccc5ccc4c3c2)c(C)c1` [Compound C4] were, in that order, 3.6 mg/mL (≈ 6.25 mM) and 1.0 mg/mL (≈ 1.74 mM).
As for `[2H]c1c([2H])c([2H])c(-c2c([2H])c([2H])c(N(c3c([2H])c([2H])c(-c4c([2H])c([2H])c([2H])c(-c5c([2H])c([2H])c([2H])c([2H])c5[2H])c4[2H])c([2H])c3[2H])c3c([2H])c([2H])c4c([2H])c([2H])c5c6c([2H])c([2H])c([2H])c([2H])c6c([2H])c([2H])c5c4c3[2H])c([2H])c2[2H])c([2H])c1[2H]` [Compound C2, Perdeutero-N-([1,1′-biphenyl]-4-yl)-N-([1,1′:3′,1″-terphenyl]-4-yl)chrysen-3-amine], the solubility properties result (compared with compound C1 of Table 1) is given as “very similar to those of compound C1”.
`c1ccc(-c2ccc(N(c3ccc(-c4cccc5ccccc45)cc3)c3ccc4ccc5c6ccccc6ccc5c4c3)cc2)cc1` [Compound C5] came in with a Solubility anisole of 23.7 mg/mL (≈ 39.6 mM) and a Solubility toluene of 24.4 mg/mL (≈ 40.8 mM).
For `CC(C)(C)c1ccc(N(c2ccc(-c3ccccc3)cc2)c2ccc3ccc4c5ccccc5ccc4c3c2)cc1` [Compound C3, N-(biphenyl-4-yl)-N-(4-tert-butylphenyl)chrysene-3-amine], in that order: 22.4 mg/mL (≈ 42.4 mM) and 22.2 mg/mL (≈ 42.1 mM).
